This is an account of results in ChEMBL document CHEMBL4229327, “Chemical Approaches to Modulating Complement-Mediated Diseases” (J Med Chem, 2018).

Broadly, the Ki is the dissociation constant of the complex between target and ligand, obtained from inhibition or displacement. By IC50 is commonly meant the midpoint of a concentration-inhibition curve. One may read the Kd as the constant that tells how readily two partners part at equilibrium.

Experiment [1] addresses T1, Mannan-binding lectin serine protease 1 (Homo sapiens, UniProt P48740).
T1 sequence (P48740 whole entry): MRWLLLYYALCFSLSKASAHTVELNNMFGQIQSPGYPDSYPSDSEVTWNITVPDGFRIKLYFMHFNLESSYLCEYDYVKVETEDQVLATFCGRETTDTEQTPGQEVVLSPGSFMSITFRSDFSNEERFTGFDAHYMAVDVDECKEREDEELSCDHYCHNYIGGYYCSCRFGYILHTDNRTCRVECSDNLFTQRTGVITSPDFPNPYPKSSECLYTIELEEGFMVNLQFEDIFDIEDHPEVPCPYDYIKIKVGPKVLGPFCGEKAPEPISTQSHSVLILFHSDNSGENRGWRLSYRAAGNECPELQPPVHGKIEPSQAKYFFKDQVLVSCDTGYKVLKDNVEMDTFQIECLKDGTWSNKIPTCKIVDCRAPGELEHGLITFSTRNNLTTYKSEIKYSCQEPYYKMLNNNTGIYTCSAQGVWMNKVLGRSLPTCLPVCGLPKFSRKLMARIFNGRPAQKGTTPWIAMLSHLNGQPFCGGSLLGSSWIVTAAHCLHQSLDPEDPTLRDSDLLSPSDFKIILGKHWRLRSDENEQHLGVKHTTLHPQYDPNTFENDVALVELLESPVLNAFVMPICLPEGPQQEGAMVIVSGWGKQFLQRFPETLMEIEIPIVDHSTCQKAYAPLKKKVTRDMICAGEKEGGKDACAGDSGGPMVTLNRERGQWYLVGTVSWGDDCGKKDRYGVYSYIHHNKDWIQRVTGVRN
Briefly: Inhibition of recombinant […] fragment of MASP-1 (unknown origin).

Experiment [2] deals with T1, Mannan-binding lectin serine protease 1. As to the kind of experiment: Inhibition of MASP1 (unknown origin)-induced lectin pathway by ELISA. (An ELISA detects its analyte on a solid surface through an enzyme-linked reagent.)
The target in experiment [3] is T2, Complement C1r subcomponent (Homo sapiens, UniProt P00736).
T2 sequence (P00736 whole entry): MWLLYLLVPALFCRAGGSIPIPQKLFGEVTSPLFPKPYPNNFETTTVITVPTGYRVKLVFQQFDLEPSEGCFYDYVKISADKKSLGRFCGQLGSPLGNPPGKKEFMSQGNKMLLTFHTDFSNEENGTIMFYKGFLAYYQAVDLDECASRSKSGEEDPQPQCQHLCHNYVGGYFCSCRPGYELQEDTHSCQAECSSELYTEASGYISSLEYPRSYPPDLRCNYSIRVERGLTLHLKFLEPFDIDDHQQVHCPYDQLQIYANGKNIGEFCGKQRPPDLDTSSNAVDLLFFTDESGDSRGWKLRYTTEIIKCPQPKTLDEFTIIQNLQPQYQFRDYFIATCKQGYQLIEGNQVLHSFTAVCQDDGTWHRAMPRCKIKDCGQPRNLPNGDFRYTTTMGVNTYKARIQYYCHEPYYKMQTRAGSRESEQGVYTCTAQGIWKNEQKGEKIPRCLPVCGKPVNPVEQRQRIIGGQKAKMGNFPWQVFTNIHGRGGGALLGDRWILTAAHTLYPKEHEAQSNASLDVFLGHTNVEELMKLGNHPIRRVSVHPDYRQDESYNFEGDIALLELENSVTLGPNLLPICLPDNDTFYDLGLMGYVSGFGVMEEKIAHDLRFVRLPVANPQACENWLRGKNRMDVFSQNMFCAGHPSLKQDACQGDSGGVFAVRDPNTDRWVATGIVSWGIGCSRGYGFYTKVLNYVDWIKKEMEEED
Briefly: Inhibition of human serum C1r using AAME as substrate after 30 mins.

For experiment [4], the target named is T3, Complement C1s subcomponent (Homo sapiens, UniProt P09871).
T3 sequence (P09871 whole entry): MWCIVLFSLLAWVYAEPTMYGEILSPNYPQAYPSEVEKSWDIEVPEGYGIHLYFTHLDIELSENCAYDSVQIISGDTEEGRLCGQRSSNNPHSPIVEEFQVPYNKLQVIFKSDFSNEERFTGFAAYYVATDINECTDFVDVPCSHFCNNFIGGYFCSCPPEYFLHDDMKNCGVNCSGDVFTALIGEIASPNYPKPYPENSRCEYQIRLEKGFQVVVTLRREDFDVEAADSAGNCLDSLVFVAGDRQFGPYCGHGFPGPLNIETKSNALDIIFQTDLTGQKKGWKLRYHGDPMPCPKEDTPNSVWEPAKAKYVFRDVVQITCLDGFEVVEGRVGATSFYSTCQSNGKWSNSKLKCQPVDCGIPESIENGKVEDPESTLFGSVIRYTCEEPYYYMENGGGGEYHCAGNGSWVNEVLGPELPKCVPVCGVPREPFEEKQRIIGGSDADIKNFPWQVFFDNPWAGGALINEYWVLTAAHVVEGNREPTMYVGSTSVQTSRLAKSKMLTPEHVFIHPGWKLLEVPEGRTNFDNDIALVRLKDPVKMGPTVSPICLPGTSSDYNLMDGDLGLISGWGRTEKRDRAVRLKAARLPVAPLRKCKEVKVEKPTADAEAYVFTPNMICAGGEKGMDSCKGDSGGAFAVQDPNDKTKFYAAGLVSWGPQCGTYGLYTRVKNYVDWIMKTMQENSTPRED
As to the kind of experiment: Inhibition of human serum C1s using AGLME as substrate after 30 mins.

Experiment [5] is described as follows: Inhibition of human plasma C1q-mediated rabbit RBC lysis after 60 mins.
A short description of experiment [6]: Inhibition of chimpanzee serum C1q-mediated rabbit RBC lysis after 60 mins. Also on record: species or system Pan troglodytes.
Experiment [7] can be described thus: Inhibition of rhesus monkey serum C1q-mediated rabbit RBC lysis after 60 mins. Also on record: species or system Macaca mulatta.
Experiment [8] in a line: Inhibition of rat serum C1q-mediated rabbit RBC lysis after 60 mins.
Experiment [9] is described as follows: Inhibition of mouse serum C1q-mediated rabbit RBC lysis after 60 mins.
Experiment [10] addresses T2, Complement C1r subcomponent. Briefly: Inhibition of human plasma C1r using Cbz-Gly-Arg-S-Bzl as substrate preincubated for 10 mins followed by substrate addition and measured after 30 mins by DTNB reagent-based two-beam microtiter plate photometer.
For experiment [11], the target named is T3, Complement C1s subcomponent. As to the kind of experiment: Inhibition of human plasma C1s using Cbz-Gly-Arg-S-Bzl as substrate preincubated for 10 mins followed by substrate addition and measured after 30 mins by DTNB reagent-based two-beam microtiter plate photometer.
Experiment [12] has as its target T1, Mannan-binding lectin serine protease 1. As to the kind of experiment: Inhibition of MASP-1 (unknown origin) using Z-L-LysSBzl hydrochloride as substrate preincubated for 1 hr followed by substrate addition.
The target in experiment [13] is T4, Mannan-binding lectin serine protease 2 (Homo sapiens, UniProt O00187). As to the kind of experiment: Inhibition of MASP-2 (unknown origin) using Z-L-LysSBzl hydrochloride as substrate preincubated for 1 hr followed by substrate addition.
T4 sequence (O00187 16-444 limits assumed): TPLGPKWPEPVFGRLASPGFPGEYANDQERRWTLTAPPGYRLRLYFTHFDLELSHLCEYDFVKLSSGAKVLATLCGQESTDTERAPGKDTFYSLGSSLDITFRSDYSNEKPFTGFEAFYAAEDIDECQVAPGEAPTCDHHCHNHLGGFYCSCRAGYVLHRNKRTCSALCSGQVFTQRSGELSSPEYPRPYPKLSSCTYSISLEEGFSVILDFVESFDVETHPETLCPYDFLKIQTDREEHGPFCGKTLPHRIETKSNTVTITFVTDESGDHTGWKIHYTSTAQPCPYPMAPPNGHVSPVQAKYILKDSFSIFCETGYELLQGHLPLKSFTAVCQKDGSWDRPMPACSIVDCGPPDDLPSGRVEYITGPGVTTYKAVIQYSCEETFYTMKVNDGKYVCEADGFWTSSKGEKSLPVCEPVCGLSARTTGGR
T4 sequence (O00187 445-686 limits assumed): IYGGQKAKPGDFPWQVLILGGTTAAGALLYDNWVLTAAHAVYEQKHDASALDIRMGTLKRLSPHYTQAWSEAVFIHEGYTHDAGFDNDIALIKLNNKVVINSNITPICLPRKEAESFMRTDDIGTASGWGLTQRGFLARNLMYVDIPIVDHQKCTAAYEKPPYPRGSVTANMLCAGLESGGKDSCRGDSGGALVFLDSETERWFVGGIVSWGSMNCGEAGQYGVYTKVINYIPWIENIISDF
The target in experiment [14] is T4, Mannan-binding lectin serine protease 2. As to the kind of experiment: Inhibition of MASP-2-mediated C4 deposition in human serum after 1 hr by ELISA.
Experiment [15] addresses T1, Mannan-binding lectin serine protease 1. Briefly: Inhibition of MASP-1-mediated C3 deposition in human serum after 30 mins by ELISA.
A short description of experiment [16]: Inhibition of bovine trypsin esterolytic activity using Na-benzoyl-L-Arg-nitroanalide as substrate. Also on record: species or system Bos taurus.
A short description of experiment [17]: Inhibition of rat serum alternative complement system-mediated lysis of guinea pig erythrocytes.
Experiment [18] in a line: Selectivity ratio of IC50 for rat serum alternative complement system-mediated lysis of guinea pig erythrocytes to IC50 for human serum C1s-mediated lysis of rabbit Ab-sensitized sheep erythrocytes after 60 mins.
Experiment [19] can be described thus: Binding affinity to C1q (unknown origin) by SPR method. Also on record: species or system Homo sapiens. (In general: Surface plasmon resonance follows binding to a sensor surface in real time, without labels.)
Experiment [20] can be described thus: Inhibition of guinea pig C1q-mediated sheep RBC lysis. Details: species or system Cavia porcellus.
The target of experiment [21] is T3, Complement C1s subcomponent. As to the kind of experiment: Inhibition of C1s (unknown origin) using Cbz-Gly-Arg-S-Bzl as substrate preincubated with substrate for 15 mins followed by enzyme addition and measured after 5 mins.

Bridge positions count the residues as written; N and C are the ends. Peptide text beside a SMILES is read from it.

For `CC(C)C[C@H](NC(=O)[C@H](CCCCN)NC(=O)[C@H](CCCNC(=N)N)NC(=O)[C@@H](NC(=O)[C@H](CS)NC(=O)[C@H](Cc1ccccc1)NC(=O)[C@H](C)NC(=O)[C@H](CO)NC(=O)[C@H](CCCCN)NC(=O)CNC(=O)[C@H](CC(=O)O)NC(=O)[C@H](CO)NC(=O)CNC(=O)[C@H](CS)NC(=O)[C@H](CCCNC(=N)N)NC(=O)[C@H](CS)NC(=O)[C@@H](NC(=O)[C@H](CC(N)=O)NC(=O)[C@H](CS)NC(=O)[C@H](CCCCN)NC(=O)[C@H](CC(=O)O)NC(=O)[C@H](CCCCN)NC(=O)[C@H](Cc1ccccc1)NC(=O)[C@@H](NC(=O)[C@@H](NC(=O)CNC(=O)[C@@H]1CCCN1C(=O)[C@H](CCC(=O)O)NC(=O)[C@H](CS)NC(=O)[C@@H](NC(=O)[C@@H](N)C(C)C)[C@@H](C)O)[C@@H](C)O)[C@@H](C)O)[C@@H](C)O)[C@@H](C)O)C(=O)N[C@@H](CS)C(=O)N[C@@H](Cc1ccc(O)cc1)C(=O)N[C@@H](CCC(N)=O)C(=O)O` (H-VTCEPGTTFKDKCNTCRCGSDGKSAFCTRKLCYQ-OH), the Ki in experiment [1] stood at 7 nM. Also, the IC50 in experiment [2] stood at 42 nM.
As to `N=C(N)c1ccc2cc(OC(=O)c3ccc(N=C(N)N)cc3)ccc2c1` [NAFAMOSTAT], the values for the IC50 in experiment [3] and in experiment [4] were 800 nM and 29 nM, respectively.
For the compound `CC(C)C[C@@H]1NC(=O)[C@H](CC(=O)O)NC(=O)[C@H](Cc2c[nH]cn2)NC(=O)[C@H](CCCNC(=N)N)NC(=O)[C@@H]2CCCN2C(=O)CNC(=O)[C@H](Cc2ccccc2)NC(=O)[C@@H]2CCCN2C(=O)CNC(=O)[C@H](CCC(=O)O)NC(=O)[C@@H](N)CSSC[C@@H](C(=O)N[C@@H](Cc2c[nH]c3ccccc23)C(=O)O)NC(=O)[C@H](Cc2ccccc2)NC(=O)[C@H]([C@@H](C)O)NC1=O` (H-CEGPFGPRHDLTFCW-OH; disulfide 1-14), the IC50 in [5] is 2000 nM; in experiment [6] it was 2 to 6 µM; in experiment [7], 2 to 6 µM; in experiment [8] it was 2 to 6 µM; in experiment [9], 2 to 6 µM.
Turning to `CC(C)[C@@H](NC(=O)Cc1c(Cl)cccc1Cl)C(=O)N1CC=CC1C(=O)NCc1ccc(C(=N)N)s1` (stereo partly specified), the values for the IC50 in experiment [10] and in [11] were 600 nM and 900 nM, respectively.
Consider `CC[C@H](C)[C@H](NC(=O)CN)C(=O)N[C@@H](CS)C(=O)N[C@@H](CO)C(=O)N[C@@H](CCCNC(=N)N)C(=O)N[C@@H](CO)C(=O)N[C@@H](CC(C)C)C(=O)N1CCC[C@H]1C(=O)N1CCC[C@H]1C(=O)N[C@H](C(=O)N[C@@H](CS)C(=O)N[C@H](C(=O)N1CCC[C@H]1C(=O)N[C@@H](CC(=O)O)C(=O)O)[C@@H](C)CC)[C@@H](C)CC` (H-GICSRSLPPICIPD-OH), for which the Ki in [12] amounted to 65 nM; in experiment [13], 1030 nM. Moreover, the IC50 in experiment [14] turned out to be 230 nM; in experiment [15], 40 nM.
For `N=C(N)c1cc2ccc(OC(=O)c3cccs3)cc2s1`, the IC50 in [16] is 326 nM; in experiment [17] it was 330 nM. Also, the Ratio IC50 in experiment [18] stood at 7.
`CC[C@H](C)[C@H](N)C(=O)N[C@@H](C)C(=O)N[C@@H](CC(C)C)C(=O)N[C@H](C(=O)N[C@@H](CC(C)C)C(=O)N[C@@H](CCC(=O)O)C(=O)N1CCC[C@H]1C(=O)N[C@H](C(=O)N[C@@H](CS)C(=O)N[C@@H](CS)C(=O)N[C@@H](CCC(N)=O)C(=O)N[C@@H](CCC(=O)O)C(=O)N[C@@H](CCCNC(=N)N)C(=O)N[C@@H](C)C(=O)N[C@@H](C)C(=O)O)[C@@H](C)CC)[C@@H](C)CC` displayed a Kd in experiment [19] of 33 nM.
Regarding `CC(=O)N[C@@H](C)C(=O)N[C@@H](CCC(=O)O)C(=O)N[C@@H](C)C(=O)N[C@@H](CCCCN)C(=O)N[C@@H](C)C(=O)N[C@@H](CCCCN)C(=O)N[C@@H](C)C(N)=O` (Ac-AEAKAKA-NH2), in experiment [20], the IC50 was 166 µM.
Regarding `CSc1sc(C(=N)N)cc1-c1nc(-c2cccc(NS(=O)(=O)c3ccc(F)cc3F)c2)cs1`, in [21], the affinity corresponds to a Ki of 30 nM.
